Source: US20100120752A1, “MUSCARINIC AGONISTS TO TREAT IMPULSE CONTROL DISORDERS” (Solvay Pharmaceuticals, B.V., priority 2007, published 2010)

Columns and labels:
[1] = system: MK801 induced increase of anticipatory responses of rats; assay: 5-Choice Serial Reaction Time task, interaction studies against MK801; type: in vivo, rat; conditions: for % correct resp / nr anticipatory resp / nr of correct resp / nr of fault resp / nr of missed resp / persevering resp / total nr of resp: ±SEM; for effect on increase in anticipatory responses induced by MK801 / effect on increase in persevering responses induced by MK801: table 3
Description: (§1) Male Wistar rats weighing 330-450 g (Harlan, The Netherlands) were housed in pairs under a 12-h light/dark cycle (lights off at 7:00 a.m.) and had daily access to a limited amount of food that kept their body weight at approximately 85% of the free feeding weight. Water was available ad libitum. All procedures were in compliance with the European Communities Council Directive of Nov. 24, 1986 (86/609 EEC).
(§2) Standard 5-CSRT boxes from MED associates Inc. Georgia, Vt. US were used. The curved wall of the chamber contained five 1.6 cm2 holes, 2.2 cm deep, 2 cm above floor level. […] In every hole a yellow stimulus light was presented. A food dispenser was located at the opposite wall. The box was illuminated by a 28 Volt 100 mA house light. The 5-CSRT boxes were placed in sound attenuating cubicles. On-line control of the apparatus and data collection were performed by a MED-PC experimental apparatus programming system (Tatham, 1989), running on a Dell Optiplex GX1 PC.
(§3) Rats were first trained to collect reinforcement pellets from the food dispenser and to collect reinforcements that were placed in the 5 holes in order to habituate the animals to the 5-CSRT task apparatus. Next, training of the 5-CSRT task started. These sessions started by illumination of the light in one of the holes for 30 seconds (stimulus duration). A response by the rat into the illuminated hole or a response in that particular hole for a short period of time after the illumination (the limited hold 60 sec) was rewarded with the delivery of a food pellet, termination of the trial and a correct response was recorded. The light stimulus was presented in each of the holes 20 times during a session (total of 100 presentations), and the order of presentations was randomized. […] After termination of the trial a variable inter-trial interval was started (1, 3, 5, 7 or 9 sec) after which the next trial was started. Upon reaching a 75% correct performance level the duration of illumination of the light stimulus was reduced until a presentation of 0.5 sec (from 30 to 20, 10, 5, 2, 1, 0.9; 0.8; 0.7; 0.6; 0.5.) and a limited hold of 5 sec (in three steps from 30 to 20, 10 and 5 sec), was reached. (Robbins, 1993).
(§4) The following parameters were measured (Muir, 1996):
(§5) Accuracy: the percentage correct responses divided by the total responses made.
(§6) Errors of omission: the number of missed stimulus presentations.
(§7) Correct responses: the number of correct responses.
(§8) Fault responses: the number of responses in the wrong hole.
(§9) Anticipatory responses: the number of premature responses made preceding the presentation of the light stimulus.
(§10) Persevering responses: responses emitted after an incorrect or correct response.
Both xanomeline and desmethylclozapine were each tested in the same dose range against 0.05 mg/kg (s.c.) MK801, a dose shown to elicit unequivocal impulsive behavior (see Table 1).

Male Wistar rats = assay: 5-Choice Serial Reaction Time task, xanomeline or desmethylclozapine alone; type: in vivo, rat; conditions: for number of anticipatory responses / number of correct responses / number of fault responses / number of missed responses / percentage of correct responses / persevering responses / total number of responses: ±S.E.M.; for effect on number of anticipatory responses: at 10 mg/kg, table 2
Description: as §1, §2, §3, §4, §5, §6, §7, §8, §9, §10
Xanomeline, a mixed muscarine-M1 and muscarine-M4 agonist, and desmethylclozapine, a muscarinic-M1 agonist and muscarinic-M4 antagonist, were each tested in a Latin hexagon design, meaning that each rat received all test-dosages (0, 1, 3 and 10 mg/kg i.p.) in a random order.

[2] = 1 mg/kg against 0.05 mg/kg (s.c.) MK801
[3] = 3 mg/kg against 0.05 mg/kg (s.c.) MK801
[4] = 10 mg/kg against 0.05 mg/kg (s.c.) MK801

In the case of Clc1ccc2c(c1)N=C(N1CCNCC1)c1ccccc1N2 [desmethylclozapine], the “% correct resp” value [1, 2] is reported as 67.2 ± 2.6%, the nr anticipatory resp [1, 2] is reported as 141.8 ± 20.8 and the “nr of correct resp” value [1, 2] is reported as 52.5 ± 3.4. For the same molecule, the “nr of fault resp” value [1, 2] was 25.1 ± 1.9, the “nr of missed resp” value [1, 2] was 22.4 ± 3.1 and the persevering resp [1, 2] was 24.8 ± 2.8. For the same molecule, the “total nr of resp” value [1, 2] was 77.6 ± 3.1, the “% correct resp” value [1, 3] was 69.6 ± 2.6% and the nr anticipatory resp [1, 3] was 104.3 ± 18.4. The “nr of correct resp” value [1, 3] was 55.2 ± 2.8, the “nr of fault resp” value [1, 3] was 24.4 ± 2.4 and the “nr of missed resp” value [1, 3] was 20.4 ± 3.6. For the same molecule, the persevering resp [1, 3] was 16.3 ± 2.1, the “total nr of resp” value [1, 3] was 79.6 ± 3.6 and the “% correct resp” value [1, 4] was 70.1 ± 3.1%. For the same molecule, the nr anticipatory resp [1, 4] was 78.6 ± 14.5, the “nr of correct resp” value [1, 4] was 52.7 ± 3.9 and the “nr of fault resp” value [1, 4] was 21.6 ± 2.0. For the same molecule, the “nr of missed resp” value [1, 4] was 25.8 ± 3.7, the persevering resp [1, 4] was 17.3 ± 3.4 and the “total nr of resp” value [1, 4] was 74.3 ± 3.7. The “effect on increase in anticipatory responses induced by MK801” value [1] was “antagonize”, the “effect on increase in persevering responses induced by MK801” value [1] was “antagonize” and the “number of anticipatory responses” value (Male Wistar rats; 1 mg/kg i.p.) was 50.2 ± 4.9. The “number of correct responses” value (Male Wistar rats; 1 mg/kg i.p.) was 52.2 ± 3.2, the “number of fault responses” value (Male Wistar rats; 1 mg/kg i.p.) was 19.4 ± 2.2 and the “number of missed responses” value (Male Wistar rats; 1 mg/kg i.p.) was 28.4 ± 3.2. For the same molecule, the “percentage of correct responses” value (Male Wistar rats; 1 mg/kg i.p.) was 72.9 ± 3.1%, the persevering responses (Male Wistar rats; 1 mg/kg i.p.) was 7.8 ± 1.4 and the “total number of responses” value (Male Wistar rats; 1 mg/kg i.p.) was 71.6 ± 3.2. For the same molecule, the “number of anticipatory responses” value (Male Wistar rats; 3 mg/kg i.p.) was 51.3 ± 7.5, the “number of correct responses” value (Male Wistar rats; 3 mg/kg i.p.) was 51.9 ± 3.1 and the “number of fault responses” value (Male Wistar rats; 3 mg/kg i.p.) was 20.1 ± 2.2. The “number of missed responses” value (Male Wistar rats; 3 mg/kg i.p.) was 28.0 ± 2.2, the “percentage of correct responses” value (Male Wistar rats; 3 mg/kg i.p.) was 71.9 ± 3.2% and the persevering responses (Male Wistar rats; 3 mg/kg i.p.) was 8.8 ± 1.2. The “total number of responses” value (Male Wistar rats; 3 mg/kg i.p.) was 72.0 ± 2.2, the “number of anticipatory responses” value (Male Wistar rats; 10 mg/kg i.p.) was 34.5 ± 3.9 and the “number of correct responses” value (Male Wistar rats; 10 mg/kg i.p.) was 48.5 ± 3.9. For the same molecule, the “number of fault responses” value (Male Wistar rats; 10 mg/kg i.p.) was 17.5 ± 2.0, the “number of missed responses” value (Male Wistar rats; 10 mg/kg i.p.) was 34.0 ± 2.9 and the “percentage of correct responses” value (Male Wistar rats; 10 mg/kg i.p.) was 72.6 ± 3.6%. The persevering responses (Male Wistar rats; 10 mg/kg i.p.) was 5.5 ± 0.9, the “total number of responses” value (Male Wistar rats; 10 mg/kg i.p.) was 66.0 ± 2.9 and the “effect on number of anticipatory responses” value (Male Wistar rats) was “reduced”.
For CCCCCCOc1nsnc1C1=CCCN(C)C1 [xanomeline], the “% correct resp” value [1, 2] was 70.2 ± 3.8%, the nr anticipatory resp [1, 2] was 75.3 ± 10.5 and the “nr of correct resp” value [1, 2] was 58.7 ± 4.4. The “nr of fault resp” value [1, 2] was 23.8 ± 2.4, the “nr of missed resp” value [1, 2] was 17.6 ± 3.1 and the persevering resp [1, 2] was 15.3 ± 2.5. For the same molecule, the “total nr of resp” value [1, 2] was 82.4 ± 3.1, the “% correct resp” value [1, 3] was 71.6 ± 2.4% and the nr anticipatory resp [1, 3] was 99.3 ± 11.1. For the same molecule, the “nr of correct resp” value [1, 3] was 57.4 ± 2.7, the “nr of fault resp” value [1, 3] was 22.7 ± 1.9 and the “nr of missed resp” value [1, 3] was 19.9 ± 2.4. For the same molecule, the persevering resp [1, 3] was 14.1 ± 3.5, the “total nr of resp” value [1, 3] was 80.1 ± 2.4 and the “% correct resp” value [1, 4] was 74.4 ± 2.8%. For the same molecule, the nr anticipatory resp [1, 4] was 47.5 ± 8.4, the “nr of correct resp” value [1, 4] was 50.9 ± 2.4 and the “nr of fault resp” value [1, 4] was 18.0 ± 2.2. The “nr of missed resp” value [1, 4] was 31.1 ± 3.0, the persevering resp [1, 4] was 8.5 ± 1.1 and the “total nr of resp” value [1, 4] was 68.9 ± 3.0. For the same molecule, the “effect on increase in anticipatory responses induced by MK801” value [1] was “antagonize”, the “effect on increase in persevering responses induced by MK801” value [1] was “antagonize” and the “number of anticipatory responses” value (Male Wistar rats; 1 mg/kg i.p.) was 58.0 ± 7.9. For the same molecule, the “number of correct responses” value (Male Wistar rats; 1 mg/kg i.p.) was 53.0 ± 2.4, the “number of fault responses” value (Male Wistar rats; 1 mg/kg i.p.) was 22.7 ± 1.6 and the “number of missed responses” value (Male Wistar rats; 1 mg/kg i.p.) was 24.3 ± 2.4. The “percentage of correct responses” value (Male Wistar rats; 1 mg/kg i.p.) was 70.0 ± 2.1%, the persevering responses (Male Wistar rats; 1 mg/kg i.p.) was 6.3 ± 1.1 and the “total number of responses” value (Male Wistar rats; 1 mg/kg i.p.) was 75.1 ± 2.4. For the same molecule, the “number of anticipatory responses” value (Male Wistar rats; 3 mg/kg i.p.) was 60.8 ± 4.9, the “number of correct responses” value (Male Wistar rats; 3 mg/kg i.p.) was 51.2 ± 2.5 and the “number of fault responses” value (Male Wistar rats; 3 mg/kg i.p.) was 21.7 ± 1.8. The “number of missed responses” value (Male Wistar rats; 3 mg/kg i.p.) was 27.2 ± 2.2, the “percentage of correct responses” value (Male Wistar rats; 3 mg/kg i.p.) was 70.2 ± 2.5% and the persevering responses (Male Wistar rats; 3 mg/kg i.p.) was 6.7 ± 1.4. For the same molecule, the “total number of responses” value (Male Wistar rats; 3 mg/kg i.p.) was 72.8 ± 2.2, the “number of anticipatory responses” value (Male Wistar rats; 10 mg/kg i.p.) was 21.5 ± 6.4 and the “number of correct responses” value (Male Wistar rats; 10 mg/kg i.p.) was 37.2 ± 2.6. For the same molecule, the “number of fault responses” value (Male Wistar rats; 10 mg/kg i.p.) was 15.0 ± 1.8, the “number of missed responses” value (Male Wistar rats; 10 mg/kg i.p.) was 46.8 ± 3.7 and the “percentage of correct responses” value (Male Wistar rats; 10 mg/kg i.p.) was 72.1 ± 2.3%. For the same molecule, the persevering responses (Male Wistar rats; 10 mg/kg i.p.) was 4.9 ± 0.9, the “total number of responses” value (Male Wistar rats; 10 mg/kg i.p.) was 53.2 ± 3.7 and the “effect on number of anticipatory responses” value (Male Wistar rats) was “reduced”.
